Literature values, collected in patent US20040202732A1, “Composition to promote weight loss” (priority 2003, published 2004).

Key:
[1] = test system: prostaglandin E2 production
[2] = caffeine administration alone
[3] = 12 weeks, 3.4-g and higher CLA groups, sixty overweight or obese subjects
[4] = 12 weeks, fifty-three healthy men and women
[5] = three daily doses for 2 weeks, exercise 90 minutes three times weekly
[6] = mice fed CLA supplemented diets for 28 days
[7] = 4-week treatment

| Compound | inhibition of TNF-alpha (TNF-alpha) | inhibition of prostaglandin E2 production [1] | increased resting energy expenditure and fat oxidation [2] | body fat mass (BFM) [3] | decrease of proportion of body fat [4] [%] | body weight loss [5] | body fat ([5]; versus placebo) | body mass [6] | increase of body protein [6] | reduction of body fat [6] | inhibition of IL-1 (IL-1) | reduction from waistlines ([7]; average) | sagittal abdominal diameter (SAD) ([7]; twenty-five men with significant abdominal fat) |
| --- | --- | --- | --- | --- | --- | --- | --- | --- | --- | --- | --- | --- | --- |
| O=C(O[C@@H]1Cc2c(O)cc(O)cc2O[C@@H]1c1cc(O)c(O)c(O)c1)c1cc(O)c(O)c(O)c1 [EGCG, epigallocatechin galate] | can inhibit | can inhibit |  |  |  |  |  |  |  |  |  |  |  |
| Cn1c(=O)c2c(ncn2C)n(C)c1=O [caffeine] |  |  | did not occur |  |  |  |  |  |  |  |  |  |  |
| Conjugated Linoleic Acid [CLA] |  | can inhibit |  | significant reduction | 3.8 | no effects | significantly reduced | maintained body mass | up to 13% | up to 60% | can inhibit | an average of one-inch reduction | significant reduction |
